In PubChem BioAssay AID2305 (GlaxoSmithKline (GSK), 2010):

System: P. falciparum 3D7 growth, pLDH absorbance
Assay: P. falciparum 3D7 growth inhibition, dose response, strain 3D7 (AID 2305)

Row | SMILES | IC50
1 | N#Cc1ccc(NC(=O)c2ccc(C(=O)NCCCCN3CCC(c4ccc5c(c4OCCOC4CCCCO4)CCCC5)CC3)cc2)cc1 (stereo not given) | 580 nM
2 | CCS(=O)(=O)Nc1ccc2[nH]cc(C3CCN(CCC4CCN(C(=O)/C=C/c5ccc(Cl)c(Cl)c5)CC4)CC3)c2c1 | 530 nM
3 | CS(=O)(=O)c1ccc(-c2cnc(N)c(-c3ccc(O)cc3)c2)cc1 | 1360 nM
4 | N#Cc1ccc(NC(=Nc2ccccc2Br)N(C2CCCCC2)C2CCCCC2)c(O)c1 | 780 nM
5 | O=c1[nH]c(NCCCNCc2cc3c(Cl)cc(Cl)cc3[nH]2)nc2ccsc12 | 1120 nM
6 | Cc1[nH]c(C)c(-c2ccc(Oc3cccc(OC(F)(F)F)c3)cc2)c(=O)c1Br | 20 nM
7 | COc1cccc(C(=O)[C@H]2C[C@@H]2CN(C)CCC(O)c2ccc(Cl)c(Cl)c2)c1 (stereo not given in full) | 760 nM
8 | CC(=NN=C(N)N)c1ccc2c(c1)Cc1ccccc1-2 | 1410 nM
9 | COc1ccc2nccc([C@H](O)CN3CCC(NCc4nc5c(F)cccc5[nH]4)CC3)c2c1 | 710 nM
10 | CCS(=O)(=O)c1ccc(OC)c(Nc2nccc(-c3c(-c4cccc(NC(=O)c5c(F)cccc5F)c4)nn4ncccc34)n2)c1 | 1030 nM
11 | OC1CCCN(Cc2ccc(-c3ccc(-c4nc5ccc(F)cc5[nH]4)cc3)cc2)C1 (stereo not given) | 850 nM
12 | Cn1c(=N)cc(-c2cccc(I)c2)c2c(=O)[nH]c(N)nc21 | 270 nM
13 | N=c1c(C(=O)NCc2ccccc2)cc2c(=O)n3ccccc3nc2n1CCc1ccccc1 | 530 nM
14 | COC(=O)c1ccc(CC(C)NCC(O)c2cccc(I)c2)cc1 (stereo not given) | 1320 nM
15 | O=S(=O)(Nc1ccc(CCN2CCCCC2CCN2CCCC2)cc1)c1cccc2cccnc12 (stereo not given) | 1300 nM
16 | CC(=O)Nc1ccc(CN(Cc2ccc(OC(C)(C)C)cc2)Cc2ccc3c(c2)OCCO3)cc1 | 930 nM
17 | Cc1ccccc1N1CCN(c2ccc(C(=O)Nc3ccccc3)cn2)CC1 | 590 nM
18 | CC(C)(C)c1ccc(NC(=O)c2cccc(CN3CCN(Cc4cccc(O)c4)CC3)c2)cc1 | 1400 nM
19 | O=C(Nc1cccc(-c2cccc(-c3nc4ccccc4[nH]3)c2)c1)Nc1ccc(F)c(F)c1F | 60 nM
20 | CC(C)CNCc1cccc(-c2ccc(CN(C(=O)c3cccs3)C3CCN(Cc4ccccc4)CC3)cc2)c1 | 1010 nM
21 | CC(C)(C)OC(=O)n1cc(C2CCN(CCCC34CCCc5cccc(c53)NC4=O)CC2)c2ccncc21 (stereo not given) | 880 nM
22 | Cn1cncc1-c1cc2c(Nc3ccc(OCc4ccccc4)cc3)ncnc2cn1 | 270 nM
23 | C=CCN1CCC(N(Cc2cccc(Oc3ccccc3)c2)C(=O)C(c2ccccc2)c2ccccc2)CC1 | 1140 nM
24 | C=C1N(C)c2cc([N+](=O)[O-])c(N)cc2C1(C)C | 490 nM

Row | SMILES | IC50
25 | CN1N=C2c3ccccc3CCC2C1c1ccc(C#N)cc1 (stereo not given) | 660 nM
26 | CCCCCN1CCCC(CNS(=O)(=O)c2cccc(C(=O)Nc3ccc(C(F)(F)F)cc3)c2)C1 (stereo not given) | 830 nM
27 | Cn1c(Nc2cc(C(C)(C)C)on2)nc2cc(Nc3ccnc(Nc4cccc(CS(C)(=O)=O)c4)n3)ccc21 | 570 nM
28 | COc1cc2c(cc1C(F)(F)F)N(C(=O)Nc1cccc(-c3ccc(CN(C)C)cc3)c1)CC2 | 710 nM
29 | CN(C)CCNCc1ccc(-c2ccc3c(Nc4ccc(F)cc4Cl)ccnc3c2)o1 | 140 nM
30 | c1ccc(CN2CCC(NCc3ccccc3-c3ccc(CNCc4ccc5c(c4)OCO5)cc3)CC2)cc1 | 330 nM
31 | CCC(Nc1noc(-c2c(-c3ccccc3)noc2C)n1)c1ccccc1 (stereo not given) | 970 nM
32 | CCCCCCCN(Cc1ccc(OC(C)(C)C(=O)OCC)cc1)C(=O)Nc1ccc(Cl)cc1OCC | 820 nM
33 | CCCCCN1CCCN(Cc2cccc(NC(=O)c3ccc4ccccc4c3)c2)CC1 | 1220 nM
34 | Cc1ccccc1CN1CCCN(Cc2ccc(C(=O)Nc3ccc(Cl)cc3)cc2)CC1 | 940 nM
35 | CCN1CCN(c2cc(C)c3cc(NC(=O)c4ccc(Br)o4)ccc3n2)CC1 | 750 nM
36 | Cc1nc2ccc(F)cc2n1C1CCN(C(=O)Cc2ccc(F)c(F)c2)CC1 | 1410 nM
37 | COCC(=O)N(Cc1cccc(-c2ccc(CNCCc3ccccc3)cc2)c1)C1CCN(Cc2ccccc2)CC1 | 1100 nM
38 | Cc1cccc2[nH]c(-c3cccc(-c4ccc(NC(=O)C5CC(=O)Nc6ccccc65)cc4)c3)nc12 (stereo not given) | 690 nM
39 | CNCc1ccc(-c2ccc3ccnc(N)c3c2)cc1 | 260 nM
40 | Cc1cccc(C)c1CNc1ccnc2ccccc12 | 1200 nM
41 | COc1ccc2nccc([C@@H](O)CN3CCC(NCc4ccc(OC)c(NC=O)c4)CC3)c2c1 | 750 nM
42 | CCNc1cc(C(=O)N[C@@H](Cc2ccco2)[C@H](O)CNC2CCCCC2)cc(N2CCCCS2(=O)=O)c1 | 1010 nM
43 | CC(=O)Oc1c(Cl)c(C)nc(C)c1-c1ccc(Oc2ccc(OC(F)(F)F)cc2)cc1 | 100 nM
44 | O=C(NCCc1ccccc1)N(Cc1cccc(-c2ccc(CNCCc3ccccc3)cc2)c1)C1CCN(Cc2ccccc2)CC1 | 610 nM
45 | COc1ccccc1-n1c(-c2ccc3ccccc3c2)csc1=NC(=O)c1ccccc1 | 200 nM
46 | Nc1cccc(CNCc2cccc(-c3ccc(-c4nc5ccc(C(F)(F)F)cc5[nH]4)cc3)c2)c1 | 360 nM
47 | Cc1cc(N[C@@H](Cc2ccccc2)C(=O)NCCc2ccccc2)nc(NCCc2ccc(F)cc2)n1 | 660 nM
48 | CCOc1ccc2c(NN=Cc3ccccn3)cc(C)nc2c1 | 860 nM

Row | SMILES | IC50
49 | O=S(=O)(Nc1ccc2nccc(N3CCNCC3)c2c1)c1ccc2c(Cl)cccc2c1 | 570 nM
50 | CCn1cc(C=C2Oc3c(ccc(O)c3CN3CCCCC3)C2=O)c2ccccc21 | 280 nM
51 | CS(=O)(=O)Nc1ccc2[nH]cc(C3CCN(CC(O)C4CCN(C(=O)/C=C/c5ccc(Cl)c(Cl)c5)CC4)CC3)c2c1 (stereo not given) | 1760 nM
52 | COc1ccc(NC(=O)[C@H](CC(C)C)Nc2cc(C)nc(NCc3cccc(C)c3)n2)cc1 | 1020 nM
53 | CC[C@H](N=C(Nc1ccc(C#N)cc1O)Nc1cccc(Cl)c1Cl)c1ccccc1 | 820 nM
54 | O=C(/C=C/c1ccsc1)N1CCC(CCN2CCC(c3c[nH]c4ccccc34)CC2)CC1 | 910 nM
55 | COc1ccccc1NC(=O)Nc1cccc(-c2ccc(-c3nc4ccc(C(F)(F)F)cc4[nH]3)cc2)c1 | 310 nM
56 | COCCNCc1ccc(-c2ccc(CN(C(=O)Nc3ccccc3)C3CCN(Cc4ccccc4)CC3)cc2)cc1 | 750 nM
57 | S=C(NCC1CCCCC1)NC1CCC(CN2CCC(c3c[nH]c4ccccc34)CC2)CC1 (stereo not given) | 1110 nM
58 | COc1ccccc1COc1c(C)nc(N)nc1N | 710 nM
59 | C[C@@H](NC(=O)c1nn(-c2ccc(Cl)cc2)c(=O)c2ccccc12)C(C)(C)C | 1120 nM
60 | CCN(CC)Cc1cc(Nc2c3ccc(Cl)cc3nc3cccc(OC)c23)ccc1O | 30 nM
61 | N#Cc1ccc2c(c1)CCN(CCC1CCC(NC(=O)/C=C/c3ccc4ccccc4c3)CC1)CC2 (stereo not given) | 720 nM
62 | CCNc1cc(C(=O)N[C@@H](Cc2ccccc2)[C@H](O)CNC2CCCC2)cc(N2CCCC2=O)c1 | 80 nM
63 | CN(C)c1ccc(CN2CCC(CNC(=O)c3cc(-c4cccc(C(F)(F)F)c4)cs3)C2)cc1 (stereo not given) | 880 nM
64 | O=C(/C=C/c1ccc(Cl)c(Cl)c1)NCCCCCN1CCC(NC(=O)Nc2cccc(F)c2)CC1 | 770 nM
65 | CCOC(=O)c1c(-c2ccccc2)[nH]c2c(sc3ccccc32)c1=O | 370 nM
66 | CC(C)N1CCN(C(CN2CCN(CCCOc3cccc(F)c3)CC2)c2ccc(F)cc2)CC1 (stereo not given) | 910 nM
67 | CN(C)c1ccc(-c2csc(C(=O)NCC3CCN(Cc4cccc(C(F)(F)F)c4)C3)c2)cc1 (stereo not given) | 840 nM
68 | Cc1ccnc2nc(C(=O)Nc3cc(Cl)ccc3N3CCOCC3)nn12 | 1240 nM
69 | CN(C(=O)c1cc2c(-c3cncnc3)cccc2[nH]1)c1ccccc1 | 630 nM
70 | CN(C)CCNCc1ncsc1-c1ccc2c(Nc3ccc(F)cc3Cl)ccnc2c1 | 1470 nM
71 | COc1cc(Cc2cnc(N)nc2N)cc(OCCCN2C(=O)c3ccccc3C2=O)c1OC | 990 nM
72 | Cc1ccc2nc(C)n(C3CCN(C(=O)C4(c5ccccc5)CC4)CC3)c2c1 | 820 nM

Row | SMILES | IC50
73 | CN(CC(=O)Nc1ccc(F)cc1)C(=O)c1ccc(-c2ccc(F)cc2)o1 | 930 nM
74 | COc1ccc(C(C(=O)NC2CCN(C[C@H](O)c3ccnc4ccc(OC)cc34)CC2)N2CCN(c3ccc(Cl)c(Cl)c3)CC2)cc1 (stereo not given in full) | 200 nM
75 | O=C(/C=C/c1ccc(Cl)c(Cl)c1)NC1[C@@H]2CC[C@H]1CC(CN1CCC(c3c[nH]c4ccccc34)CC1)C2 (stereo not given in full) | 200 nM
76 | CCCSc1nc2c(c(=O)n1Cc1ccco1)C1(CCCCC1)Cc1ccccc1-2 | 420 nM
77 | CC(C)c1cc2c(ccc3nc(N)nc(N)c32)[nH]1 | 40 nM
78 | CC(C)CCNC(=O)C1Cc2c([nH]c3ccc(Br)cc23)C2(CCN(Cc3ccccc3)CC2)N1 (stereo not given) | 820 nM
79 | O=C(Cn1c(CCc2cccc(F)c2F)nc(=O)c2cccnc21)N(Cc1ccc(-c2ccc(C(F)(F)F)cc2)cc1)C1CCN(C2CCOCC2)CC1 | 830 nM
80 | COc1ccc(CNC(=O)NC2CCN(c3ccnc(Nc4ccc(OC)cc4)n3)C2)cc1 (stereo not given) | 1000 nM
81 | CCc1cc2c(O)c([N+](=O)[O-])c(=O)oc2cc1OCCCCCOc1cc2oc(=O)c([N+](=O)[O-])c(O)c2cc1CC | 260 nM
82 | Cc1cccc2[nH]c(-c3ccc(-c4cccc(C(=O)N5CCCCC5C(C)O)c4)s3)nc12 (stereo not given) | 640 nM
83 | NC1=NC(c2ccccc2)N(OCc2ccccc2)C(N)=N1 (stereo not given) | 40 nM
84 | c1ccc(-c2[nH]c3ccccc3c2CN2CCC(N3CCCCC3)CC2)nc1 | 1210 nM
85 | CN(CCCNc1ccc(C(=O)Nc2ccc(C(F)(F)F)cc2)cc1[N+](=O)[O-])Cc1ccccc1 | 230 nM
86 | CCN(CC)CCN(CCCc1ccc(-c2ccc(C(F)(F)F)cc2)cc1)C(=O)Cn1c(CCc2cccc(F)c2F)nc(=O)c2c1CCC2 | 830 nM
87 | CC1(C)[C@H]2C=C(CN3CCC(NC(=O)Nc4ccc(Cl)c(Cl)c4)CC3)[C@@H]1CC2 | 760 nM
88 | CC(C)C(NC(=O)c1c(F)cccc1F)C(=O)Nc1ccc(Cc2nc3ccccc3s2)cc1 (stereo not given) | 450 nM
89 | CCC(=O)N(c1ccccc1)C1CCN(CCCC(NC(=O)Nc2cc(C(F)(F)F)cc(C(F)(F)F)c2)c2ccc(Cl)c(Cl)c2)CC1 (stereo not given) | 670 nM
90 | CCOc1ccc(-c2nc(NC(=O)Cc3cccc(OC)c3)sc2C)cc1 | 730 nM
91 | Cc1cccc2[nH]c(-c3cccc(-c4ccc(NC(=O)COC(C)C)cc4)c3)nc12 | 1190 nM
92 | CN(C)c1cccc2c(S(=O)(=O)Nc3cccc(CCN4CCC(N5CCCCC5)CC4)c3)cccc12 | 980 nM
93 | FC(F)(F)c1ccc2nc(-c3ccc(-c4cccc(CNCC5CCCO5)c4)s3)[nH]c2c1 (stereo not given) | 370 nM
94 | O=C(CCc1nc2c(cnn2-c2ccccc2)c(=O)[nH]1)NC1CCSc2ccccc21 (stereo not given) | 1060 nM
95 | CN1CCCC1CCNCc1cccc(-c2cnc(N(C)C3CCCCC3)nc2)c1 (stereo not given) | 850 nM
